Measurements published in paper PMC8624133, “10th Trends in Medical Mycology Held on 8 to 11 October 2021, Aberdeen, Scotland, Organized by the European Confederation of Medical Mycology (ECMM)” (Journal of Fungi, 2021).
Converted amounts (≈) assume the structure as drawn. Where two headings read alike, the source gives them in different places.

How the values were obtained:
[1] = test system: C. auris clinical strains; experiment: organism not typed; format: cell-based, Candida auris; details: for MIC: range, 78 strains from patients with COVID-19
McLDM strains = experiment: EUCAST MIC, S. cerevisiae overexpressing M. circinelloides LDM, resistance phenotypes; format: cell-based, Saccharomyces cerevisiae
[2] = test system: biofilm of filamentous fungi; experiment: Biofilm XTT-menadione assay; format: cell-based
Protocol: Materials & Methods: Eight strains are studied: Fusarium solani, Fusarium dimerum, Lomentospora prolificans, Scedosporium apiospermum, Aspergillus flavus, Aspergillus fumigatus and two azole resistant A. fumigatus.
Biofilms were formed after a 90-min adhesion phase followed by the addition of RPMI medium and after a 48 h at 37 °C. Antifungals at different concentrations were added, either after the adhesion phase or after the 48 h of incubation to study their effect on the formation and on the preformed biofilm. After washing, a mixture of XTT-menadione was added to the wells. After 60 min at 37 °C, the OD (optical density) is measured at 450 and 630 nm. An optical microscope observation allows the visualization of elements of the biofilm.

Trichosporon isolates = experiment: CLSI broth microdilution; format: cell-based, Trichosporon spp.
[3] = test system: Exophiala phaeomuriformis; experiment: MIC, CLSI M27-A3; format: cell-based; details: read-out: MIC values
Outline: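 Isolate recovered from aviation kerosene by 0.22 μm membrane filtration, grown on potato dextrose agar at 30 °C for seven days and identified by ITS sequencing. Susceptibility to clinical antifungals tested per CLSI M27-A3.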

[4] = test system: Rasamsonia argillacea species complex; experiment: Antifungal susceptibility testing; format: cell-based; details: sputum isolate of a CF patient
C. glabrata [5] = experiment: Candidemia Netherlands, MIC distributions against EUCAST ECOFF; format: cell-based, Candida glabrata
C. parapsilosis [6] = experiment: as above; format: cell-based, Candida parapsilosis
[7] = test system: Aspergillus spp. isolates; experiment: Gradient strip susceptibility (Liofilchem); format: cell-based; details: for isolates with in vitro high MIC values: first isolate per species and patient
C. parapsilosis [8] = experiment: Vitek and EUCAST microdilution susceptibility; format: cell-based, Candida parapsilosis; details: Lodderomyces parapsilosis
[9] = test system: Phaeoacremonium parasiticum; experiment: Antifungal susceptibility testing; format: cell-based
Protocol: Results: Cultures for bacteria were sterile. Culture on Sabouraud was positive after 5 days of incubation, showing slow growing and initially white colonies. […] Its identification was performed by sequencing the internal transcribed spacer (ITS) region of ribosomal DNA, being the isolate identified as Phaeoacremonium parasiticum (100% homology).

F. verticillioides = experiment: Etest susceptibility; format: cell-based, Fusarium verticillioides
C. auris = experiment: CLSI M27-A3 broth microdilution; format: cell-based, Candida auris; details: for MIC: Candidozyma auris, read-out: GM MIC
[10] = test system: nine strains of Candida spp.; experiment: CLSI M27-A3 broth microdilution; format: cell-based; details: nine strains; for MIC: Candida, read-out: GM MIC
C. albicans = format: cell-based, Candida albicans
C. parapsilosis [11] = format: cell-based, Candida parapsilosis
C. glabrata [12] = format: cell-based, Candida glabrata
C. tropicalis = format: cell-based, Candida tropicalis
C. krusei = format: cell-based, Candida krusei
Other species of Candida = format: cell-based, Candida spp.
C. fermentati = experiment: EUCAST E. Def 7.3.2 microdilution; format: cell-based, Candida fermentati; details: n = 2
[13] = test system: A. fumigatus clinical isolates; experiment: Susceptibility of clinical isolates from CF patients; details: all 10 clinical isolates
[14] = Triazole drug levels in ABPA patients with asthma; format: in vivo, human; details: 452 patients, Oct 2009 to March 2021
Description: Materials & Methods: This was a retrospective single-centre cohort study evaluating longitudinal outcomes in non-cystic fibrosis (CF) ABPA patients with underlying chronic lung disease (asthma), and description of treatment approaches. Statistical Analysis System (SAS) programming was used for data integration from multiple hospital electronic systems, for patient identification and data analysis. Criteria for inclusion were patients with a background of asthma, serum Total IgE >1000 IU/mL and a positive Aspergillus IgE, with or without a positive culture for A. fumigatus from a respiratory sample. Data collected included demographics, lung function severity, disease activity serological markers (Aspergillus IgE, Aspergillus IgG, Total IgE) and triazole levels. In this study the impact of fungal therapy on disease outcomes was assessed.

[15] = test system: C. auris Isolate B and Isolate C; experiment: microbe, parasite or virus in culture; format: cell-based, Candida auris; details: for reduction in MIC: Isolate C with ERG11 WT in place of K143R
McLDM-F5-CPR = experiment: microbe, parasite or virus in culture; format: cell-based, Saccharomyces cerevisiae AD2Δgal; details: Saccharomyces cerevisiae, read-out: mean MIC
McLDM-F1-CPR = experiment: microbe, parasite or virus in culture; format: cell-based, Saccharomyces cerevisiae AD2Δgal; details: Saccharomyces cerevisiae, read-out: mean MIC
[16] = test system: C. auris III.8 and TAC1/MRR1 deletion strains; format: cell-based, Candida auris
Candida catenulata = experiment: CLSI M44 agar diffusion; format: cell-based
[17] = III.8 tac1a/tac1b strain vs parental
[18] = III.8 tac1a/tac1b/mrr1 strain vs parental

C[C@@H]1[C@H](O)[C@@H](C)/C=C/C=C/C=C/C=C/C=C/C=C/C=C/[C@H](O[C@@H]2O[C@H](C)[C@@H](O)[C@H](N)[C@@H]2O)C[C@@H]2O[C@](O)(C[C@@H](O)C[C@@H](O)[C@H](O)CC[C@@H](O)C[C@@H](O)CC(=O)O[C@H]1C)C[C@H](O)[C@H]2C(=O)O [amphotericin B]
MIC [1]: 0.12 to 2 µg/mL (≈ 0.13 to 2.16 µM) | MICs compared to AD2Δ (McLDM strains): not affected | number of strains with 100% inhibition of biofilm formation [2]: two | MIC (Trichosporon isolates; read-out: GM MIC): 0.9 µg/mL (≈ 0.974 µM) | MIC [3]: 2 µg/mL (≈ 2.16 µM) | minimal inhibitory concentrations (MIC) [4]: high minimal inhibitory concentrations | isolates within the wildtype distribution range (C. glabrata [5]): 98.6% | isolates within the wildtype distribution range (C. parapsilosis [6]): 92.9% | isolates with in vitro high MIC values [7]: 19.6% | MIC ([7]; gradient strips, ten isolates (5 A. terreus, 3 A. flavus, 1 A. fumigatus, 1 A. nidulans)): > 32 µg/mL | MIC (C. parapsilosis [8]): 0.5 µg/mL (≈ 0.541 µM) | minimal inhibitory concentrations (MIC), in words [9]: higher | minimum inhibitory concentration (MIC), in words (F. verticillioides): lower values | MIC Range (C. auris): 0.125 to 2 µg/mL | MIC (C. auris): 0.43 µg/mL (≈ 0.465 µM) | MIC [10]: 0.13 µg/mL (≈ 0.141 µM) | MIC Range [10]: 0.03 to 2 µg/mL | I (intermediate) isolates, n (%) (C. albicans): 4 (2%) | S (sensitive) isolates, n (%) (C. albicans): 196 (97%) | I (intermediate) isolates, n (%) (C. parapsilosis [11]): 1 (0.6) | S (sensitive) isolates, n (%) (C. parapsilosis [11]): 169 (98.3%) | I (intermediate) isolates, n (%) (C. glabrata [12]): 2 (2.8%) | S (sensitive) isolates, n (%) (C. glabrata [12]): 69 (97.2%) | I (intermediate) isolates, n (%) (C. tropicalis): 0 (0%) | S (sensitive) isolates, n (%) (C. tropicalis): 57 (100%) | S (sensitive) isolates, n (%) (C. krusei): 7 (100%) | I (intermediate) isolates, n (%) (Other species of Candida): 0 (0%) | S (sensitive) isolates, n (%) (Other species of Candida): 26 (100%) | GM (C. fermentati): 0.125 µg/mL | MIC Range (C. fermentati): 0.125 to 0.25 µg/mL | susceptibility [13]: susceptible

CCC(C)n1ncn(-c2ccc(N3CCN(c4ccc(OCC5COC(Cn6cncn6)(c6ccc(Cl)cc6Cl)O5)cc4)CC3)cc2)c1=O (centres unmarked) [itraconazole]
MIC [1]: 0.12 to 16 µg/mL (≈ 0.17 to 22.7 µM) | MICs compared to AD2Δ (McLDM strains): not affected | median trough drug level [14]: 0.76 mg/L | MIC [3]: 0.25 µg/mL (≈ 0.354 µM) | change of MIC [15]: largely unchanged | reduction in MIC [15]: unchanged | minimum inhibitory concentration (MIC), in words (F. verticillioides): high values | MIC Range (C. auris): 0.125 to 1 µg/mL | MIC (C. auris): 0.12 µg/mL (≈ 0.17 µM) | MIC [10]: 0.11 µg/mL (≈ 0.156 µM) | susceptibility [13]: susceptible

OC(Cn1cncn1)(Cn1cncn1)c1ccc(F)cc1F [fluconazole]
Resistance ([1]; CDC tentative breakpoints): 100% | MIC (McLDM-F5-CPR): 128 µg/mL (≈ 418 µM) | MIC (McLDM-F1-CPR): 14.7 µg/mL (≈ 47.9 µM) | MIC (Trichosporon isolates; read-out: high MICs): 8 µg/mL (≈ 26.1 µM) | MIC decrease ([16]; III.8 mrr1 strain vs parental): 2 fold | MIC decrease [16, 17]: 2 fold | MIC ([16]; III.8 tac1a/tac1b/mrr1 strain): 128 µg/mL (≈ 418 µM) | MIC decrease [16, 18]: 4 fold | MIC ([16]; parental III.8 isolate): 512 µg/mL (≈ 1670 µM) | decrease in MIC [15]: 4 fold | MIC ([15]; Candidozyma auris, Isolate B (ERG11 Y132F, TAC1B A583S)): 128 µg/mL (≈ 418 µM) | reduction in MIC [15]: 8 fold | isolates within the wildtype distribution range (C. glabrata [5]): 83.6% | isolates within the wildtype distribution range (C. parapsilosis [6]): 92.5% | MIC (C. parapsilosis [8]): 8 µg/mL (≈ 26.1 µM) | minimum inhibitory concentration (MIC), in words (F. verticillioides): high values | MIC Range (C. auris): 1 to 32 µg/mL | MIC (C. auris): 5.26 µg/mL (≈ 17.2 µM) | MIC [10]: 4.66 µg/mL (≈ 15.2 µM) | MIC Range [10]: 0.5 to 32 µg/mL | I (intermediate) isolates, n (%) (C. albicans): 0 (0%) | R (resistant) isolates, n (%) (C. albicans): 3 (1.5%) | S (sensitive) isolates, n (%) (C. albicans): 199 (98.5%) | I (intermediate) isolates, n (%) (C. parapsilosis [11]): 0 (0%) | R (resistant) isolates, n (%) (C. parapsilosis [11]): 2 (1.2%) | S (sensitive) isolates, n (%) (C. parapsilosis [11]): 171 (98.8%) | I (intermediate) isolates, n (%) (C. glabrata [12]): 3 (4.2%) | R (resistant) isolates, n (%) (C. glabrata [12]): 12 (16.9%) | S (sensitive) isolates, n (%) (C. glabrata [12]): 56 (78.9%) | I (intermediate) isolates, n (%) (C. tropicalis): 0 (0%) | R (resistant) isolates, n (%) (C. tropicalis): 0 (0%) | S (sensitive) isolates, n (%) (C. tropicalis): 57 (100%) | I (intermediate) isolates, n (%) (Other species of Candida): 0 (0%) | R (resistant) isolates, n (%) (Other species of Candida): 0 (0%) | S (sensitive) isolates, n (%) (Other species of Candida): 25 (100%) | GM (C. fermentati): 2 µg/mL | MIC Range (C. fermentati): 2 µg/mL (≈ 6.53 µM) | resistant isolates (Candida catenulata; […], discs 25 μg fluconazole, 1 μg voriconazole): 19%

C[C@@H](c1ncncc1F)[C@](O)(Cn1cncn1)c1ccc(F)cc1F [voriconazole]
MIC [1]: 0.06 to 8 µg/mL (≈ 0.172 to 22.9 µM) | MIC (McLDM-F5-CPR): 4 µg/mL (≈ 11.5 µM) | MIC (McLDM-F1-CPR): 0.29 µg/mL (≈ 0.83 µM) | median trough drug level [14]: 0.82 mg/L | number of strains with 100% inhibition of biofilm formation [2]: one | MIC (Trichosporon isolates; read-out: GM MIC): 0.075 µg/mL (≈ 0.215 µM) | MIC [3]: 0.25 µg/mL (≈ 0.716 µM) | MIC decrease ([16]; III.8 mrr1 strain vs parental): 2 fold | MIC ([16]; III.8 tac1a/tac1b strain): 1 µg/mL (≈ 2.86 µM) | MIC decrease [16, 17]: 2 fold | MIC ([16]; III.8 tac1a/tac1b/mrr1 strain): 0.5 µg/mL (≈ 1.43 µM) | MIC decrease [16, 18]: 4 fold | MIC ([16]; parental III.8 isolate): 2 µg/mL (≈ 5.73 µM) | reduction in MIC [15]: 2 fold | minimal inhibitory concentrations (MIC) [4]: high minimal inhibitory concentrations | isolates with in vitro high MIC values [7]: 1.9% | minimal inhibitory concentrations (MIC), in words [9]: low | minimum inhibitory concentration (MIC), in words (F. verticillioides): lower values | I (intermediate) isolates, n (%) (C. albicans): 0 (0%) | R (resistant) isolates, n (%) (C. albicans): S 200 (99%) I 0 (0%) R 2 (1%) | S (sensitive) isolates, n (%) (C. albicans): 200 (99%) | I (intermediate) isolates, n (%) (C. parapsilosis [11]): 1 (0.6%) | R (resistant) isolates, n (%) (C. parapsilosis [11]): S 170 (98.8%) I 1 (0.6%) R 1 (0.6%) | S (sensitive) isolates, n (%) (C. parapsilosis [11]): 170 (98.8%) | I (intermediate) isolates, n (%) (C. glabrata [12]): 2 (2.8%) | R (resistant) isolates, n (%) (C. glabrata [12]): S 62 (87.3%) I 2 (2.8%) R 7 (9.9%) | S (sensitive) isolates, n (%) (C. glabrata [12]): 62 (87.3%) | I (intermediate) isolates, n (%) (C. tropicalis): 0 (0%) | R (resistant) isolates, n (%) (C. tropicalis): S 57 (100%) I 0 (0%) R 0 (0%) | S (sensitive) isolates, n (%) (C. tropicalis): 57 (100%) | S (sensitive) isolates, n (%) (C. krusei): 7 (100%) | I (intermediate) isolates, n (%) (Other species of Candida): 0 (0%) | R (resistant) isolates, n (%) (Other species of Candida): S 26 (100%) I 0 (0%) R 0 (0%) | S (sensitive) isolates, n (%) (Other species of Candida): 26 (100%) | resistant isolates (Candida catenulata): 19% | susceptibility [13]: susceptible
